Values joined by “and” are separate entries in the source; they are usually repeats but may differ in a detail not shown here. Identical values can stand only once. Like-named read-outs stand apart in the source and are kept apart here. One block for each molecule: values may come before it.
Experiments:
[1] = 10 mM, pH 7.3-7.4, 37° C.
[2] = format: physicochemical; conditions: 10 mM, pH 7.3-7.4, tsat = 3 sec, ω1 = 3.6 μT, 37° C.
[3] = in vivo; cited from earlier work
[4] = format: in vivo, mouse; conditions: mice, i.v., 9.3 ppm, 7.2 μT
Description: In particular, images consisting of a single axial slice containing both kidneys were collected. Because the B0 inhomogeneity was less than 200 Hz for these animals, a two-point collection scheme was used to limit the scan time, which is also allowed by the use of the 7.2 μT field strength. […] A Z-spectrum was acquired before injection. […] According to the initial results in FIGS. 4F-4G, the in vivo data collection scheme was modified in order to improve the kinetic data for compound 1 in the kidney. […] In vivo images were acquired on a Bruker Biospec 11.7 T horizontal bore MR scanner, with one axial slice of 1.5 mm thickness obtained through the medulla of both kidneys. […] The BALB/c mice (n=2) weighing 20-25 g (Charles River Laboratories, Wilmington, Mass.) were maintained under specific pathogen free conditions in the animal facility of Johns Hopkins University. […] Breath rate was monitored throughout in vivo MRI experiments using a respiratory probe. […] BALB/c mice weighing 20-25 g (Charles River Laboratories, Wilmington, Mass.) were maintained under specific pathogen free conditions in the animal facility of Johns Hopkins University. […] Breath rate was monitored throughout in vivo MRI experiments using a respiratory probe. A 60 μL, volume of a 0.25 M salicylic acid solution in PBS (pH 7) was slowly injected via a catheter into the tail vein. […]

[5] = format: physicochemical; conditions: 25 mM, pH 7.0-7.4, tsat=3 sec, ω1=3.6 μT, 37° C., 11.7 T
Procedure: 25 mM salicylic acid analogs (4-11) were made at pH 7.1-7.4 and tested with the phantom condition as described above. The Z-spectra were obtained by using Tsat=3 sec, ω1=3.6 μT at 37° C. […] CEST contrast was quantified by MTRasym=(S−Δω−S+Δω))/S0 after a voxel-by-voxel B0 correction, with characterized mean Z-spectra and MTRasym spectra for sample ROIs plotted and the typical results were summarized in FIG. 3A.

[6] = QUESP/QUEST determination of ksw of anthranilic acid analogs; format: physicochemical
[7] = pH 7.1-7.4, B1=3.6 μT, Tsat=3 s, 37° C., 11.7 T
[8] = neutral pH; cited from earlier work
[9] = QUESP measurement of proton exchange rate (ksw) of salicylic acid; format: physicochemical; conditions: 25 mM, pH 7.0, QUESP
[10] = 48.5 tM iopamidol; cited from earlier work

Structure (SMILES): O=C(O)c1ccccc1NC(=O)C(F)(F)F [Compound 41]
kex ([1]; Table 5): 190 s⁻¹ | Signal (ppm) ([2]; Table 5): 9.3 ppm

Structure (SMILES): O=Cc1cccc(C(=O)O)c1O [Compound 34, 3-Formylsalicylic acid]
kex ([1]; Table 4): 510 s⁻¹ | Signal (ppm) ([2]; Table 4): 10.5 ppm

Structure (SMILES): COc1cccc(O)c1C(=O)O [Compound 21, 6-methoxysalicylic acid]
kex ([1]; Table 3): 4900 s⁻¹ | Signal (ppm) ([2]; Table 3): 9.0 ppm

Structure (SMILES): O=C(O)c1ccccc1Nc1cccc(C(F)(F)F)c1 [Compound 5, flufenamic acid, reference compound]
LD50 [3]: 150 mg/kg

Structure (SMILES): O=C(O)c1cccc(F)c1O [Compound 25]
kex ([1]; Table 4): 750 s⁻¹ | Signal (ppm) ([2]; Table 4): 9.5 ppm

Structure (SMILES): O=C(O)c1cc(I)cc(I)c1O [Compound 28]
kex ([1]; Table 4): 310 s⁻¹ | Signal (ppm) ([2]; Table 4): 10.8 ppm

Structure (SMILES): O=C(O)c1ccccc1Nc1ccccc1 [Compound 37]
kex ([1]; Table 5): 670 s⁻¹ | Signal (ppm) ([2]; Table 5): 4.8 ppm

Structure (SMILES): O=C(O)c1ccc2ccccc2c1O [Compound 29, 1-Hydroxy-2-naphthoic acid]
kex ([1]; Table 4): 220 s⁻¹ | Signal (ppm) ([2]; Table 4): 10.5 ppm

Structure (SMILES): C[C@H](O)C(=O)Nc1c(I)c(C(=O)NC(CO)CO)c(I)c(C(=O)NC(CO)CO)c1I [iopamidol]
optimal time to observe the contrast [10]: 45 min

Structure (SMILES): O=C(O)c1ccc(O)cc1O [Compound 16]
kex ([1]; Table 2): 460 s⁻¹ | Signal (ppm) ([2]; Table 2): 9.5 ppm

Structure (SMILES): Nc1ccc(C(=O)O)c(O)c1 [4-amino salicylic acid]
LD50 [3]: 4,250 mg/kg

Structure (SMILES): O=C(O)c1cc(Br)cc(Br)c1O [Compound 27, 3,5-Dibromosalicylic acid]
kex ([1]; Table 4): 580 s⁻¹ | Signal (ppm) ([2]; Table 4): 10.5 ppm

Structure (SMILES): O=C(O)c1ccc(O)cc1O [2,4-Dihydroxy benzoic acid]
LD50 [3]: 800 mg/kg

The next lines start with results.

kex ([1]; Table 3): 4400 s⁻¹ | Signal (ppm) ([2]; Table 3): 9.5 ppm
Structure (SMILES): O=C(O)c1c(O)ccc2ccccc12 [Compound 20, 2-hydroxy-l-naphthoic acid]

kex ([1]; Table 4): 480 s⁻¹ | Signal (ppm) ([2]; Table 4): 9.3 ppm
Structure (SMILES): COc1cccc(C(=O)O)c1O [Compound 32, 3-methoxysalicylic acid]

kex ([1]; Table 4): 410 s⁻¹ | Signal (ppm) ([2]; Table 4): 9.0 ppm
Structure (SMILES): Nc1cccc(C(=O)O)c1O [Compound 33, 3-aminosalicylic acid]

kex ([1]; Table 6): 460 s⁻¹ | Signal (ppm) ([2]; Table 6): 9.8 ppm
Structure (SMILES): O=C(O)c1cc(C(=O)O)c(O)cc1O [Compound 43, 4,6-dihydroxyisophthalic acid]

chemical shift of CEST contrast (exchangeable proton) from water [5]: 9.3 ppm | kex ([1]; Table 1): 400 s⁻¹ | ksw ([6]; pH 6.5): 2.4 kHz | ksw ([6]; pH 7.8): 0.4 kHz | CEST frequency / labile proton chemical shift from water [7]: 9.3 ppm | Signal (ppm) ([2]; Table 1): 9.3 ppm | proton exchange rate with water (ksw) [9]: 1.2 ks^−1
Structure (SMILES): O=C(O)c1ccccc1O [Compound 1, salicylic acid]
average CEST contrast over the whole kidney [4]: 6.0±0.8% and 6% | exchange rate (previously reported) [8]: 600 s⁻¹

kex ([1]; Table 5): 550 s⁻¹ | Signal (ppm) ([2]; Table 5): 6.3 ppm
Structure (SMILES): CS(=O)(=O)Nc1ccc(N)cc1C(=O)O [Compound 38]

kex ([1]; Table 4): 1070 s⁻¹ | Signal (ppm) ([2]; Table 4): 10.3 ppm
Structure (SMILES): O=C(O)c1cc(Cl)cc(Cl)c1O [Compound 26]

kex ([1]; Table 4): 22 s⁻¹ | Signal (ppm) ([2]; Table 4): 9.3 ppm
Structure (SMILES): CC(C)(C)c1cc(C(=O)O)c(O)c(C(C)(C)C)c1 [Compound 24, 3,5-di-tert-butylsalicylic acid]

kex ([1]; Table 3): 30 s⁻¹ | Signal (ppm) ([2]; Table 3): 9.3 ppm
Structure (SMILES): O=C(O)c1c(O)cccc1O [Compound 22, 2,6-dihydroxybenzoic acid]

kex ([1]; Table 4): 250 s⁻¹ | Signal (ppm) ([2]; Table 4): 9.5 ppm
Structure (SMILES): Cc1cccc(C(=O)O)c1O [Compound 23, 3-Methylsalicylic acid]

kex ([1]; Table 5): 440 s⁻¹ | Signal (ppm) ([2]; Table 5): 7.8 ppm
Structure (SMILES): Cc1ccc(S(=O)(=O)Nc2ccccc2C(=O)O)cc1 [Compound 40]

kex ([1]; Table 5): 470 s⁻¹ | Signal (ppm) ([2]; Table 5): 7.3 ppm
Structure (SMILES): CS(=O)(=O)Nc1ccccc1C(=O)O [Compound 39]

— US10188754B2, “Compositions and methods for chemical exchange saturation transfer (CEST) based magnetic resonance imaging (MRI)” (THE JOHNS HOPKINS UNIVERSITY, priority 2013, dated 2019)
